Results: patent publication US10519115B2, “Antidiabetic tricyclic compounds” (Merck Sharp & Dohme Corp., priority 2013, dated 2019)

Columns and labels:
Human GPR40 [1] = molecular target: T1, Human GPR40 (Homo sapiens, UniProt O14842); experiment: FLIPR assay (agonist-induced calcium mobilization, GPR40/CHO NFAT BLA cells); assay type: cell-based; design: expressed in transfected cells
Method: (§1) Human and mouse GPR40 stable cell-lines were generated in CHO cells stably expressing NFAT BLA (Beta-lactamase). A human GPR40 stable cell-line was generated in HEK cells stably expressing the aequorin expressing reporter. The expression plasmids were transfected using lipofectamine (Life Technologies) following manufacturer's instructions. Stable cell-lines were generated following drug selection.
FLIPR (Fluorimetric Imaging Plate Reader, Molecular Devices) assays were performed to measure agonist-induced calcium mobilization of the stable clones. For the FLIPR assay, one day before assay, GPR40/CHO NFAT BLA cells were seeded into black-wall-clear-bottom 384-well plates (Costar) at 1.4×10e4 cells/20 μL medium/well. The cells were incubated with 20 μl/well of the assay buffer (HBSS, 0.1% BSA, 20 mM HEPES, 2.5 mM probenecid, pH 7.4) containing 8 μM fluo-4, AM, 0.08% pluronic acid at room temperature for 100 minutes. Fluorescence output was measured using FLIPR. Compounds were dissolved in DMSO and diluted to desired concentrations with assay buffer. 13.3 μL/well of compound solution was added.

Human GPR40 [2] = molecular target: T1, Human GPR40; experiment: Inositol Phosphate Turnover Assay 1 (HEK cells stably expressing human GPR40); assay type: cell-based; design: expressed in transfected cells; host or cells: HEK cells stably expressing the aequorin reporter; details: HEK cells stably expressing human GPR40, 96-well, 3H-inositol; read-out: Human GPR40 IP1 Assay 1, EC50
Method: as §1
The assay was performed in 96-well format. HEK cells stably expressing human GPR40 were plated to be 60-80% confluent within 72 h. After 72 h, the plates were aspirated and the cells washed with inositol-free DMEM (ICN). The wash media was replaced with 150 μL of 3H-inositol labeling media (inositol-free media containing 0.4% human albumin or 0.4% mouse albumin, 1× pen/strep antibiotics, glutamine, 25 mM HEPES to which was added 3H-myo-inositol NEN #NET114A 1 mCi/mL, 25 Ci/mmol diluted 1:150 in loading media with a final specific radioactivity of 1 μCi/150 μL). Alternatively, the human and mouse albumin can be added after the overnight labeling step before the addition of LiCl.
The assay was typically run the next day after 18 h labeling. On the day of the assay, 5 μL of 300 mM LiCl was added to all wells and incubated at 37 degrees for 20 min. 0.75 μL of 200× compounds were added and incubated with the cells for 60 min at 37 degrees. The media was then aspirated off and the assay terminated with the addition of 60 μL 10 mM formic acid. The cells were lysed for 60 min at room temperature. 15-30 μL of lysate was mixed with 70 μL/1 mg YSi SPA beads (Amersham) in clear bottom Isoplates. The plates were shaken for 2 h at room temperature. Beads were allowed to settle and the plates were counted in the Wallac Microbeta.

T1 sequence (O14842 whole entry): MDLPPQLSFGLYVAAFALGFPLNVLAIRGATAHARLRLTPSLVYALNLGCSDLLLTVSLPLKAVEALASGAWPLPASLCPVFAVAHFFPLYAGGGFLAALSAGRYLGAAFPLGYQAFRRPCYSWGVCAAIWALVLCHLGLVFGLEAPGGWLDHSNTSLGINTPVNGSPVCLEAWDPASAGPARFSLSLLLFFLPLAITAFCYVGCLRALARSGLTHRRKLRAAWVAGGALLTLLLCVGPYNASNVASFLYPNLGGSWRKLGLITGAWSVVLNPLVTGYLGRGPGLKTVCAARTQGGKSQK

Structure (SMILES)	EC50 (Human GPR40 [1]) [nM]	EC50 (Human GPR40 [2]) [nM]
CS(=O)(=O)N1CC2(CN(c3ccc(-c4cc(COc5cc6c(cn5)[C@H]5[C@@H](C6)[C@@H]5C(=O)O)c(F)cc4C(F)(F)F)c(F)c3)C2)C1 [Compound-4, (5aR,6S,6aS)-3-((2′,4-difluoro-4′-(6-(methylsulfonyl)-2,6-diazaspiro[3,3]heptan-2-yl)-6-(trifluoromethyl)-[1,1′-biphenyl]-3-yl)methoxy)-5,5a,6,6a-tetrahydrocyclopropa[4,5]-cyclopenta[1,2-c]pyridine-6-carboxylic acid]	10	19
CS(=O)(=O)N1CCC(c2ccc(-c3cc(COc4cc5c(cn4)[C@H]4[C@@H](C5)[C@@H]4C(=O)O)c(F)cc3C(F)(F)F)cc2)CC1 [Compound-5, (5aR,6S,6aS)-3-((4-fluoro-4′-(1-(methylsulfonyl)piperidin-4-yl)-6-(trifluoromethyl)-[1,1′-biphenyl]-3-yl)methoxy)-5,5a,6,6a-tetrahydrocyclopropa[4,5]cyclopenta[1,2-c]pyridine-6-carboxylic acid]	4.2	13
O=C(O)[C@H]1[C@@H]2Cc3cc(OCc4cc(-c5ccc(C6CCN(S(=O)(=O)C7CC7)CC6)cc5)c(C(F)(F)F)cc4F)ncc3[C@@H]21 [Compound-6, (5aR,6S,6aS)-3-((4′-(1-(cyclopropylsulfonyl)piperidin-4-yl)-4-fluoro-6-(trifluoromethyl)-[1,1′-biphenyl]-3-yl)methoxy)-5,5a,6,6a-tetrahydrocyclopropa[4,5]cyclopenta[1,2-c]pyridine-6-carboxylic acid]	4.2	47
Cn1nnc(-c2ccc(-c3cc(COc4cc5c(cn4)[C@H]4[C@@H](C5)[C@@H]4C(=O)O)c(F)cc3C(F)(F)F)c(F)c2)n1 [Compound-7, (5aR,6S,6aS)-3-((2′,4-difluoro-4′-(2-methyl-2H-tetrazol-5-yl)-6-(trifluoromethyl)-[1,1′-biphenyl]-3-yl)methoxy)-5,5a,6,6a-tetrahydrocyclopropa[4,5]cyclopenta[1,2-c]pyridine-6-carboxylic acid]	6.7	3.4
O=C(O)[C@H]1[C@@H]2Cc3cc(OCc4cc(-c5ccc(-c6ccc(Cl)cc6F)cc5F)c(C(F)(F)F)cc4F)ncc3[C@@H]21 [Compound-8, (5aR,6S,6aS)-3-((4″-chloro-2′,2″,4-trifluoro-6-(trifluoromethyl)-[1,1′:4′,1″-terphenyl]-3-yl)methoxy)-5,5a,6,6a-tetrahydrocyclopropa[4,5]cyclopenta[1,2-c]pyridine-6-carboxylic acid]	12	63

Second part, the compound after the results:

EC50 (Human GPR40 [1]) [nM]	EC50 (Human GPR40 [2]) [nM]	Structure (SMILES)
5.6	6.8	CC1(O)CCN(c2ccc(-c3cc(COc4cc5c(cn4)[C@H]4[C@@H](C5)[C@@H]4C(=O)O)c(F)cc3C(F)(F)F)c(F)c2)CC1 [Compound-11, (5aR,6S,6aS)-3-((2′,4-difluoro-4′-(4-hydroxy-4-methylpiperidin-1-yl)-6-(trifluoromethyl)-[1,1′-biphenyl]-3-yl)methoxy)-5,5a,6,6a-tetrahydrocyclopropa[4,5]cyclopenta[1,2-c]pyridine-6-carboxylic acid]
6.1	20	CC(C)(O)C1CCN(c2ccc(-c3cc(COc4cc5c(cn4)[C@H]4[C@@H](C5)[C@@H]4C(=O)O)c(F)cc3C(F)(F)F)c(F)c2)CC1 [Compound-12, (5aR,6S,6aS)-3-((2′,4-difluoro-4′-(4-(2-hydroxypropan-2-yl)piperidin-1-yl)-6-(trifluoromethyl)-[1,1′-biphenyl]-3-yl)methoxy)-5,5a,6,6a-tetrahydrocyclopropa[4,5]cyclopenta[1,2-c]-pyridine-6-carboxylic acid]
6.7	15	CC(C)(O)Cn1cc2c(n1)CN(c1ccc(-c3cc(COc4cc5c(cn4)[C@H]4[C@@H](C5)[C@@H]4C(=O)O)c(F)cc3C(F)(F)F)c(F)c1)C2 [Compound-13, (5aR,6S,6aS)-3-((2′,4-difluoro-4′-(2-(2-hydroxy-2-methylpropyl)pyrrolo[3,4-c]pyrazol-5(2H,4H,6H)-yl)-6-(trifluoromethyl)-[1,1′-biphenyl]-3-yl)methoxy)-5,5a,6,6a-tetrahydrocyclo-propa[4,5]cyclopenta[1,2-c]pyridine-6-carboxylic acid]
